# Literature values as cited in patent publication US7956212B2 (XenoPort, Inc., priority 2004, dated 2011).
# Tests used:
# [1] = following oral administration
# [2] = rats
# [3] = patients, administered alone
compound,measurement,setting,value
CC(C)(C)C(=O)Oc1ccc(C[C@H](N)C(=O)O)cc1O [NB-355],levels of levodopa,[1],low
C[C@@](Cc1ccc(O)c(O)c1)(NN)C(=O)O [carbidopa],absorption following rectal administration,[2],poor
"N[C@@H](Cc1ccc(O)c(O)c1)C(=O)O [levodopa, L-3,4-dihydroxyphenylalanine]",half-life of levodopa in plasma,[3],about 50 min
